Biological target: T1, WT human TRPM3 (Homo sapiens, UniProt Q9HCF6)
T1 construct: expressed in transfected cells; host or cells: HEK293T
T1 sequence (Q9HCF6 1-1325 isoform Q9HCF6-10): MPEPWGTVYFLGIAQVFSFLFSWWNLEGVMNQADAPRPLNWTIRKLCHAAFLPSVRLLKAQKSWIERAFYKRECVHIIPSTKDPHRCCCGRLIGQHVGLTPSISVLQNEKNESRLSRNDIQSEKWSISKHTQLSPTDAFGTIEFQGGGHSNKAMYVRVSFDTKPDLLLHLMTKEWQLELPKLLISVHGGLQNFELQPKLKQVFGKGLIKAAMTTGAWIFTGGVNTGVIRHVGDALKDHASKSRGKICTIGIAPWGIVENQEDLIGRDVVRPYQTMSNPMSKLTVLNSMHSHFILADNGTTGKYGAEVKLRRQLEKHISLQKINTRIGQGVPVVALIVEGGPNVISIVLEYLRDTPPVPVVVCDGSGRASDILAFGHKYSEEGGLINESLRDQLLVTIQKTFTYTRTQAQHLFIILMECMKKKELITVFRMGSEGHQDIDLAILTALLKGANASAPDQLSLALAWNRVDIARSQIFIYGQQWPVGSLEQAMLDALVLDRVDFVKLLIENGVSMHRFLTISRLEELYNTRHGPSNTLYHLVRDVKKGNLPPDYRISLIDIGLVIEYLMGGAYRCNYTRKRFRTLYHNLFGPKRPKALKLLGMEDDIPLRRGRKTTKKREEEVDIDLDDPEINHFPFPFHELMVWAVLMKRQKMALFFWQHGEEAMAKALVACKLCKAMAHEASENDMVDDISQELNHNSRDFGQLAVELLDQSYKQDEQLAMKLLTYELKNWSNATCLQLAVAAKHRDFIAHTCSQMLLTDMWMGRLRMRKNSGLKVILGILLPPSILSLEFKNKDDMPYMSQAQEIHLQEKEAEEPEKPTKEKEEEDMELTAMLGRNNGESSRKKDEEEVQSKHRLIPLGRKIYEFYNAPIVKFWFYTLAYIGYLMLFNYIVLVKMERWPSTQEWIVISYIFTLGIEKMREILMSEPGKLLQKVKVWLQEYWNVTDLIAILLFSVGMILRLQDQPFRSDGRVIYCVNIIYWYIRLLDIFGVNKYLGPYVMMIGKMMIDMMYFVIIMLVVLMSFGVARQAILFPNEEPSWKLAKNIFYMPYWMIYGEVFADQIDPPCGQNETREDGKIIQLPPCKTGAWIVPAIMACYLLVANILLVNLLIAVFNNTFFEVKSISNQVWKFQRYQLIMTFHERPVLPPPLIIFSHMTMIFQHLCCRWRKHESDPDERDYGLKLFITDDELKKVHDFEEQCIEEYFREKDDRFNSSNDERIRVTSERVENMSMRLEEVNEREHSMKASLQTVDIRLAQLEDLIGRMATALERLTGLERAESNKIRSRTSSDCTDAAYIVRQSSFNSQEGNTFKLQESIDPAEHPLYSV
Test: Whole-cell patch clamp, HEK293T cells expressing WT hTRPM3
Assay type: cell-based
Conditions: WT
Procedure: HEK293T cells ([Graham et al., 1977]) were cultured as described previously ([Vriens et al., 2007]) and used up in passage number 14. HEK293T cells were tested for the lack of mycoplasma and transiently transfected with 2 µg of DNA using TransIT transfection reagent (Mirus) 36–48 hr before the measurements. In case of co-cultures a ratio of 1:1 between hTRPM3-YFP WT and mutants-YFP DNA was used.
Standard whole-cell patch-clamp recordings were performed with an EPC-10 amplifier and the PatchMasterPro Software (HEKA Elektronik, Lambrecht, Germany). Current measurements were performed at a sampling rate of 20 kHz and currents were digitally filtered at 2.9 kHz. In all measurements, 70% of the series resistance was compensated. The standard internal solution contained (in mM): 100 CsAsp, 45 CsCl, 10 EGTA, 10 HEPES, 1 MgCl2 (pH 7.2 with CsOH) or 140 potassium gluconate, 5 EGTA, 1 MgCl2, 10 HEPES and 2 NaATP (pH 7.3 with CsOH) for the measurements of Gβγ mediated inhibition and the standard extracellular solution contained (in mM): 150 NaCl, 1 MgCl2, 10 HEPES (pH 7.4 with NaOH). The standard patch pipette resistance was between 2 MΩ and 4 MΩ when filled with pipette solution. In experiments allowing Ca^2+-dependent desensitization of TRPM3, Mg^2+ was replaced by Ca^2+ in the extracellular solution, and Cs^+ was replaced by Na^+ in the pipette solution. […] The chemical ligands were dissolved in bath solution from a stock diluted in DMSO.

Clc1ccccc1C(c1ccccc1)(c1ccccc1)n1ccnc1 [Clt, clotrimazole]
Activation of whole-cell currents in the absence of PS (Clt 10 µM): did not activate currents by itself | Effect on the response to PS (whole-cell currents) (Clt 10 µM, PS 40 µM): potentiated responses to PS

CCC1(c2ccccc2)C(=O)NCNC1=O [primidone]
Inhibition of PS-activated inward and outward currents (primidone 25 µM, PS 40 µM, ±80 mV, cells co-expressing µ-opioid receptor): full inhibition

pregnenolone sulfate [PS]
Activation of whole-cell currents (PS 40 µM): reversibly activated outwardly rectifying whole-cell currents
